Test results published in ChEMBL document CHEMBL1133152, “Design and synthesis of mimics of S-adenosyl-L-homocysteine as potential inhibitors of erythromycin methyltransferases” (Bioorg Med Chem Lett, 2000).

Assays:
[1] = target: T1, rRNA adenine N-6-methyltransferase (Streptococcus pneumoniae, UniProt P21236); assay: Inhibition of ErmAM methylase
T1 sequence (P21236 whole entry): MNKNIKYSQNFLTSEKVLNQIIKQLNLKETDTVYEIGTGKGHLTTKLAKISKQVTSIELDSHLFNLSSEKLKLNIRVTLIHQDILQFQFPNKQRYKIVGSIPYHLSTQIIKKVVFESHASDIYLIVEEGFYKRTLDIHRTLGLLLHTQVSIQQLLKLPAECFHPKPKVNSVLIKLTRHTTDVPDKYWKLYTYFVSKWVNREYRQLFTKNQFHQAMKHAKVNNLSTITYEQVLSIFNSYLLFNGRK

[2] = The compound was tested for its ability to inhibit ErmC methylase
[3] = The compound was tested for its ability to inhibit ErmC methylase at 100 uM
[4] = The compound was tested for its ability to inhibit ErmC methylase; Range 50-100
[5] = The compound was tested for its ability to inhibit ErmAM methylase at 100 uM
[6] = The compound was tested for its binding ability to inhibit ErmAM methylase

| SMILES | Ki [1] | Ki [2] | inhibition [3] | inhibition [5] | Ki [6] | Ki [4] |
| --- | --- | --- | --- | --- | --- | --- |
| Nc1nc(CC2O[C@H](CSCc3ccc(Cl)cc3)[C@@H](O)[C@H]2O)nc(NC2Cc3ccccc3C2)n1 (stereo not given in full) | ~55 µM | ~80 µM | – | – | – | – |
| Nc1nc(C[C@@H]2O[C@H](COC/C=C/c3ccccc3)[C@@H](O)[C@H]2O)nc(NC2Cc3ccccc3C2)n1 | ~90 µM | ~60 µM | – | – | – | – |
| Nc1nc(C[C@@H]2O[C@H](COCc3ccc(Br)cc3)[C@@H](O)[C@H]2O)nc(NC2Cc3ccccc3C2)n1 | ~75 µM | ~40 µM | – | – | – | – |
| Nc1nc(NC2Cc3ccccc3C2)nc(N2CCCCC2)n1 | – | – | – | – | 8 µM | – |
| Nc1nc(CC[C@@H]2O[C@H](COCc3ccc(Br)cc3)[C@@H](O)[C@H]2O)nc(NC2Cc3ccccc3C2)n1 | ~50 µM | – | 37.5% | 55% | – | 100 µM |

Now from value to compound, other results behind:

| Ki [1] | Ki [2] | inhibition [3] | inhibition [5] | Ki [6] | SMILES | Ki [4] |
| --- | --- | --- | --- | --- | --- | --- |
| > 100 µM | – | 39.9% | 18% | – | Nc1nc(CC2O[C@H](CSCCc3ccccc3)[C@@H](O)[C@H]2O)nc(NC2Cc3ccccc3C2)n1 (stereo not given in full) | 100 µM |
| > 100 µM | > 100 µM | 28% | 3.4% | – | Nc1nc(CC2O[C@H](CSc3ccccc3)[C@@H](O)[C@H]2O)nc(NC2Cc3ccccc3C2)n1 (stereo not given in full) | – |
| > 100 µM | > 100 µM | 0% | 15% | – | Cc1ccc(COC[C@H]2O[C@@H](Cc3nc(N)nc(NC4Cc5ccccc5C4)n3)[C@H](O)[C@@H]2O)cc1 | – |
| – | – | – | – | 10 µM | Nc1nc(NC2Cc3ccccc3C2)cc(-c2ccc(NCCCc3ccccc3O)cc2)n1 | – |
| > 100 µM | > 100 µM | 10% | 10% | – | Nc1nc(CC2O[C@H](CSCc3ccccc3)[C@@H](O)[C@H]2O)nc(NC2Cc3ccccc3C2)n1 (stereo not given in full) | – |
| > 100 µM | > 100 µM | 17.7% | 9.9% | – | Nc1nc(NC2Cc3ccccc3C2)nc([C@H]2C[C@@H](O)[C@H](O)[C@H](OCc3ccccc3)C2)n1 | – |
| > 100 µM | – | 5.5% | 16.9% | – | Nc1nc(CC2O[C@H](COCc3ccccc3)[C@@H](O)[C@H]2O)nc(NC2Cc3ccccc3C2)n1 (stereo not given in full) | – |
